According to publication PMC11246312, “Anthracene detoxification by Laccases from indigenous fungal strains Trichoderma lixii FLU1 and Talaromyces pinophilus FLU12” (Biodegradation, 2024):

Experiments:
TlFLU1L = test system: T1, TlFLU1L; experiment: residual anthracene by UV absorbance at […] nm after ethyl acetate extraction; Michaelis-Menten fit; type: biochemical, Trichoderma lixii; conditions: no mediator; anthracene 50-400 mg/L, Na-acetate 50 mM pH 5, Tween 80 1%, 30 °C, laccase 3 U, 96 h
T1 construct: native secreted enzyme purified from anthracene-induced culture (ammonium sulfate, DEAE, Sephadex G-100); yellow laccase; 44 kDa by SDS-PAGE

TpFLU12L = test system: T2, TpFLU12L; experiment: as above; type: biochemical, Talaromyces pinophilus; conditions: no mediator; anthracene 50-400 mg/L, Na-acetate 50 mM pH 5, Tween 80 1%, 30 °C, laccase 3 U, 96 h
T2 construct: native secreted enzyme purified from anthracene-induced culture (ammonium sulfate, DEAE, Sephadex G-100); blue laccase

Question: How did the “Km (mg/L) / TlFLU1” value (TlFLU1L) turn out when `c1ccc2cc3ccccc3cc2c1` [anthracene] was run?
Answer: 173.2 ± 0.06 mg/L

Question: And the “Km (mg/L) / TpFLU12” value (TpFLU12L)?
Answer: 73.3 ± 0.07 mg/L
